Laboratory results as given in patent publication US11192863B2, “Antiviral compounds and methods” (Biotron Limited, priority 2003, dated 2021).
Several values for one entry are separate records, joined by “and”; a condition that tells them apart may be missing. Equal entries are not always repeated. Structures can show the parent of a compound that is named as a salt. Where two headings read alike, the source gives them in different places.

Legend:
[1] = target: SARS-CoV E protein (Severe acute respiratory syndrome coronavirus, UniProt P59637); assay type: cell-based
[2] = target: Vpu protein (Human immunodeficiency virus type 1 group M subtype B, UniProt P05919); conditions: halo of growth score between zero and six; XL1-blue E. coli with pPL-Vpu, no adenine, 37° C.
[3] = system: MHV (strain MHV-A59); conditions: L929 cells

Chain of Vpu protein (P05919 whole entry): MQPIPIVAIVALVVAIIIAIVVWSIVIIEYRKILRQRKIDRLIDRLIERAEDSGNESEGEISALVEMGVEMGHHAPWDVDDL
Chain of SARS-CoV E protein (P59637 whole entry, looked up): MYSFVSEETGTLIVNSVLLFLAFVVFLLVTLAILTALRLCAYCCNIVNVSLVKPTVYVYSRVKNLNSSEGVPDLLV

Compound	SARS E protein Inhibition (score/# of times tested) [1]	Vpu Inhibition (score/# of times tested) [2]	Percent reduction in Plaque number/# experiments ([3]; 1 uM)	Percent reduction in Plaque number/# experiments ([3]; 10 uM)	Percent reduction in Plaque number/# experiments ([3]; 20 uM)	Toxic (noted in place of plaque reduction) ([3]; 20 uM)
N=C(N)NC(=O)c1ccc2ccccc2c1Br [1-bromo-2-napthoylguanidine]	0.25/1 score	0.06/2 score	27/1%	27/2%	31/1%	
N=C(N)NC(=O)/C=C/c1c(F)cccc1Cl [2-chloro-6-fluorocinnamoylguanidine]	0.25/1 score		9/1%	84/2%	100/1%	
N=C(N)NC(=O)/C=C/c1ccc2c(c1)OCO2 [3,4-(methylenedioxy)cinnamoylguanidine]	1.25/1 score	1.88/2 score	45/3%	82/3%	93/3%	
NC(N)=NC(=O)c1nc(Cl)c(N2CCCCCC2)nc1O [3-hydroxy-5-hexamethyleneimino-amiloride]			1/1%	22/2%	16/1%	
COc1nc(N2CCCCCC2)c(Cl)nc1C(=O)N=C(N)N [3-methoxy-HMA, 3-methoxy-5-(N,N-Hexamethylene)-amiloride]	1.25/1 score	0.2/4 score	35/1%	31/1%	15/1%	
NC(N)=NC(=O)c1cnc2ccccc2c1 [3-quinolinoylguanidine]			30/1%	36/2%	27/1%	
N=C(N)NC(=O)/C=C/C=C/c1ccccc1Br [5-(2′-bromophenyl)penta-2,4-dienoylguanidine]			57/1%	100/1%		Toxic
CCN(c1nc(N)c(C(=O)N=C(N)N)nc1Cl)C(C)C [5-(N-Ethyl-N-isopropyl)amiloride, 5-(N-ethyl-N-isopropyl)amiloride]	1.07/2 score	0.6/3 score				
CC(C)CN(C)c1nc(N)c(C(=O)N=C(N)N)nc1Cl [5-(N-Methyl-N-isobutyl)amiloride, 5-(N-methyl-N-isobutyl)amiloride]	3.13/2 score	0.8/2 score	44/2%	85/1%	92/1%	
NC(N)=NC(=O)c1nc(I)c(N)nc1N [6-Iodoamiloride]	1.75/2 score		0/1%	21/1%	28/1%	
N=C(N)NC(=O)c1ccc2cc(Br)ccc2c1 [6-bromo-2-napthoylguanidine]	0.25/1 score		19/1%	43/1% and 37/2%	65/1%	
N=C(N)NC(=O)/C=C/c1ccccc1[N+](=O)[O-] [(2-Nitrocinnamoyl)guanidine]		0.4/2 score	47/1%	77/2%	97/1%	
N=C(N)NC(=O)CCc1ccccc1 [(3-phenylpropanoyl)guanidine]	0.73/5 score	0.2/4 score	0/1%	03/1%	51/1%	
N=C(N)NC(=O)/C=C/c1ccc([N+](=O)[O-])cc1 [(4-Nitrocinnamoyl)guanidine]			40/3%	75/3%	97/1%	
N=C(N)NC(=O)Cc1ccccc1 [(Phenylacetyl)guanidine]	0.32/3 score		3/1%	22/1%	35/1%	
NC(N)=NC(=O)c1ccc2ccccc2n1 [(Quinoline-2-carbonyl)guanidine]	0.41/1 score		12/1%	84/1%	86/1%	
Cl.NC(N)=NC(=O)c1nc(Cl)c(N)nc1N [Amiloride•HCl, reference compound]			−5/1%	18/1%	21/1%	

Compound	SARS E protein Inhibition (score/# of times tested) [1]	Vpu Inhibition (score/# of times tested) [2]	Percent reduction in Plaque number/# experiments ([3]; 1 uM)	Percent reduction in Plaque number/# experiments ([3]; 10 uM)	Percent reduction in Plaque number/# experiments ([3]; 20 uM)	Toxic (noted in place of plaque reduction) ([3]; 20 uM)
N/C(=N\C(=O)c1nc(Cl)c(N)nc1N)NCc1ccccc1 [Benzamil hydrochloride, N-Benzyl-N′-(3,5-diamino-6-chloro-pyrzine-2-carbonyl)-guanidine]	1.32/2 score	0.9/3 score	0/1%	26/1%	0/1%	
N=C(N)NC(=O)c1ccccc1 [Benzyoylguanidine, Benzoylguanidine]		0.88/2 score	14/1%	39/2%	22/1%	
N=C(NC(=O)c1cccc2ccccc12)NC(=O)c1cccc2ccccc12 [N,N′-bis(1-napthoyl)guanidine]			35/1%	52/2%	58/1%	
N=C(NC(=O)c1ccc2ccccc2c1)NC(=O)c1ccc2ccccc2c1 [N,N′-bis(2-napthoyl)guanidine]			3/1%	3/2%	5/1%	
O=C(/C=C/c1ccccc1)NC(=Nc1ccccc1)NC(=O)/C=C/c1ccccc1 [N,N′-bis-(cinnamoyl)-N″-phenylguanidine]		0.94/2 score	31/1%	38/2%	16/1%	
N/C(=N/C(=O)c1ccc2ccccc2c1)Nc1ccccc1 [N-(2-napthoyl)-N′-phenylguanidine]	0.07/2 score					
N=C(NC(=O)/C=C/c1ccccc1)Nc1ccccc1 [N-(cinnamoyl)-N′phenylguanidine, N-(cinnamoyl)-N′-phenylguanidine]	1.19/2 score	1.25/3 score	13/1%	88/1%	83/1%	
N/C(=N\C(=O)/C=C/c1ccccc1)NC(=O)c1ccccc1 [N-Benzoyl-N′-cinnamoylguanidine]	0.13/2 score	0.06/2 score	14/1%	0/1%	0/1%	
CN(C)C(=N)NC(=O)/C=C/c1ccccc1 [N-Cinnamoyl-N′,N′-dimethylguanidine]			24/2%	65/3%	92/2%	
NC(N)=NC(=O)c1nc(-c2ccccc2)c(N)nc1N [N-amidino-3,5-diamino-6-phenyl-2-pyrazinecarboxamide]			25/1%	39/2%	53/1%	
NC(N)=NC(=O)c1nc(-c2ccccc2)c(N2CCCCCC2)nc1N [N-amidino-3-amino-5-hexamethyleneimino-6-phenyl-2-pyrazinecarboxamide]		0.6/2 score	48/1%	52/2%	84/1%	
NC(N)=NC(=O)c1nc(Cl)c(-c2ccccc2)nc1N [N-amidino-3-amino-5-phenyl-6-chloro-2-pyrazinecarboxamide]		0.5/11 score	9/1%	20/2%	20/1%	
O=C(/C=C/c1ccccc1)N=C(Nc1ccccc1)Nc1ccccc1 [N″-Cinnamoyl-N,N′-diphenylguanidine]			34/1%	72/2%	97/1%	
N/C(=N\C(=O)c1nc(Cl)c(N)nc1N)Nc1ccccc1 [Phenamil methanesulfonate salt, N-(3,5-Diamino-6-chloro-pyrazine-2-carbonyl)-N′-phenylguanidine]	0.13/2 score	0.9/5 score				
N=C(N)NC(=O)/C=C/c1cccnc1 [[3-(3-Pyridyl)acryloyl]guanidine]	0.67/3 score		21/2%	73/2%	81/2%	
C/C(=C\c1ccc(N(C)C)cc1)C(=O)NC(=N)N [[(E)-3-(4-Dimethylaminophenyl)-2-methylacryloyl]guanidine]			37/1%	45/1%	56/1%	
